Experimental data: the NIST ThermoML archive (doi:10.1016/j.jct.2014.04.026)
Where “and” joins values, the source holds several entries; their conditions need not be identical. Equal entries are not always repeated. Numbers after ± are expanded uncertainties.

Columns and labels:
[1] = Molar enthalpy of transition or fusion; conditions: Crystal; DSC
[2] = for vapor or sublimation pressure: Closed cell (Static) method; for Normal melting temperature: DTA

Cn1cnc2ccccc21 [1-methylbenzimidazole]
Molar enthalpy of transition or fusion [1]: 3.32 ± 0.0956 kcal/mol | vapor or sublimation pressure ([2]; 301.22 K, Crystal): 0.00026 ± 0.00011 kPa | vapor or sublimation pressure ([2]; 303.14 K, Crystal): 0.00033 ± 0.00011 kPa | vapor or sublimation pressure ([2]; 303.16 K, Liquid): 0.00051 ± 0.00011 kPa | vapor or sublimation pressure ([2]; 305.14 K, Crystal): 0.00042 ± 0.00011 kPa | vapor or sublimation pressure ([2]; 305.18 K, Crystal): 0.00041 ± 0.00011 kPa | vapor or sublimation pressure ([2]; 305.2 K, Liquid): 0.00062 ± 0.00011 kPa | vapor or sublimation pressure ([2]; 307.12 K, Liquid): 0.00074 ± 0.00011 kPa | vapor or sublimation pressure ([2]; 307.14 K, Crystal): 0.00051 ± 0.00011 kPa | vapor or sublimation pressure ([2]; 309.1 K, Liquid): 0.00089 ± 0.00011 kPa | vapor or sublimation pressure ([2]; 309.11 K, Crystal): 0.00063 ± 0.00011 kPa | vapor or sublimation pressure ([2]; 311.07 K, Crystal): 0.00078 ± 0.00011 kPa | vapor or sublimation pressure ([2]; 311.09 K, Liquid): 0.00107 ± 0.00012 kPa | vapor or sublimation pressure ([2]; 313.09 K, Crystal): 0.00097 ± 0.00012 kPa | vapor or sublimation pressure ([2]; 313.12 K, Liquid): 0.00128 ± 0.00012 kPa | vapor or sublimation pressure ([2]; 315.09 K, Liquid): 0.00153 ± 0.00012 kPa | vapor or sublimation pressure ([2]; 315.1 K, Crystal): 0.00119 ± 0.00012 kPa | vapor or sublimation pressure ([2]; 317.04 K, Liquid): 0.00182 ± 0.00013 kPa | vapor or sublimation pressure ([2]; 317.06 K, Crystal): 0.00146 ± 0.00012 kPa | vapor or sublimation pressure ([2]; 319.03 K, Crystal): 0.00178 ± 0.00013 kPa | vapor or sublimation pressure ([2]; 319.07 K, Liquid): 0.00217 ± 0.00014 kPa | vapor or sublimation pressure ([2]; 321.01 K, Liquid): 0.00255 ± 0.00015 kPa | vapor or sublimation pressure ([2]; 321.02 K, Crystal): 0.00217 ± 0.00014 kPa | vapor or sublimation pressure ([2]; 322.97 K, Crystal): 0.00264 ± 0.00015 kPa | vapor or sublimation pressure ([2]; 322.99 K, Liquid): 0.00304 ± 0.00016 kPa | vapor or sublimation pressure ([2]; 325.01 K, Crystal): 0.00324 ± 0.00017 kPa | vapor or sublimation pressure ([2]; 327 K, Crystal): 0.00392 ± 0.00019 kPa | vapor or sublimation pressure ([2]; 328.91 K, Crystal): 0.00473 ± 0.00022 kPa | vapor or sublimation pressure ([2]; 332.95 K, Liquid): 0.00656 ± 0.00028 kPa | vapor or sublimation pressure ([2]; 334.92 K, Liquid): 0.00759 ± 0.00032 kPa | vapor or sublimation pressure ([2]; 336.91 K, Liquid): 0.0089 ± 0.00037 kPa | vapor or sublimation pressure ([2]; 336.92 K, Liquid): 0.00896 ± 0.00037 kPa | vapor or sublimation pressure ([2]; 338.9 K, Liquid): 0.01031 ± 0.00042 kPa | vapor or sublimation pressure ([2]; 340.86 K, Liquid): 0.01187 ± 0.00048 kPa | vapor or sublimation pressure ([2]; 340.87 K, Liquid): 0.01203 ± 0.00048 kPa | vapor or sublimation pressure ([2]; 342.88 K, Liquid): 0.01375 ± 0.00053 kPa | vapor or sublimation pressure ([2]; 344.83 K, Liquid): 0.01603 ± 0.00056 kPa and 0.01591 ± 0.00056 kPa | vapor or sublimation pressure ([2]; 346.81 K, Liquid): 0.01835 ± 0.0006 kPa | vapor or sublimation pressure ([2]; 348.79 K, Liquid): 0.02107 ± 0.00064 kPa | vapor or sublimation pressure ([2]; 350.76 K, Liquid): 0.02401 ± 0.00068 kPa | vapor or sublimation pressure ([2]; 352.73 K, Liquid): 0.02767 ± 0.00074 kPa and 0.02759 ± 0.00074 kPa | vapor or sublimation pressure ([2]; 354.7 K, Liquid): 0.03132 ± 0.0008 kPa | vapor or sublimation pressure ([2]; 356.69 K, Liquid): 0.03607 ± 0.00087 kPa | vapor or sublimation pressure ([2]; 358.67 K, Liquid): 0.04098 ± 0.00095 kPa | vapor or sublimation pressure ([2]; 360.63 K, Liquid): 0.04632 ± 0.001 kPa | vapor or sublimation pressure ([2]; 362.6 K, Liquid): 0.05225 ± 0.0011 kPa | vapor or sublimation pressure ([2]; 364.59 K, Liquid): 0.05898 ± 0.0012 kPa | vapor or sublimation pressure ([2]; 366.55 K, Liquid): 0.06653 ± 0.0013 kPa | vapor or sublimation pressure ([2]; 368.53 K, Liquid): 0.07509 ± 0.0015 kPa | vapor or sublimation pressure ([2]; 370.5 K, Liquid): 0.08443 ± 0.0016 kPa | vapor or sublimation pressure ([2]; 372.49 K, Liquid): 0.09469 ± 0.0018 kPa | Normal melting temperature ([2]; Crystal): 56.1 ± 0.4 °C

Cn1ccc2ccccc21 [1-methylindole]
Molar enthalpy of transition or fusion [1]: 2.61 ± 0.0956 kcal/mol | vapor or sublimation pressure ([2]; 267.62 K, Crystal): 0.00033 ± 0.0001 kPa | vapor or sublimation pressure ([2]; 268.58 K, Liquid): 0.00043 ± 0.0001 kPa | vapor or sublimation pressure ([2]; 268.6 K, Crystal): 0.00037 ± 0.0001 kPa | vapor or sublimation pressure ([2]; 269.57 K, Crystal): 0.00042 ± 0.0001 kPa | vapor or sublimation pressure ([2]; 270.55 K, Crystal): 0.00048 ± 0.0001 kPa | vapor or sublimation pressure ([2]; 270.56 K, Liquid): 0.00054 ± 0.0001 kPa | vapor or sublimation pressure ([2]; 271.57 K, Crystal): 0.00054 ± 0.0001 kPa | vapor or sublimation pressure ([2]; 272.5 K, Liquid): 0.00066 ± 0.0001 kPa | vapor or sublimation pressure ([2]; 272.52 K, Crystal): 0.0006 ± 0.0001 kPa | vapor or sublimation pressure ([2]; 273.51 K, Crystal): 0.00068 ± 0.0001 kPa | vapor or sublimation pressure ([2]; 274.48 K, Liquid): 0.00081 ± 0.0001 kPa | vapor or sublimation pressure ([2]; 274.5 K, Crystal): 0.00077 ± 0.0001 kPa | vapor or sublimation pressure ([2]; 275.47 K, Crystal): 0.00086 ± 0.0001 kPa | vapor or sublimation pressure ([2]; 276.45 K, Liquid): 0.00097 ± 0.0001 kPa | vapor or sublimation pressure ([2]; 278.42 K, Liquid): 0.0012 ± 0.00011 kPa | vapor or sublimation pressure ([2]; 280.39 K, Liquid): 0.00145 ± 0.00011 kPa | vapor or sublimation pressure ([2]; 282.35 K, Liquid): 0.00176 ± 0.00012 kPa | vapor or sublimation pressure ([2]; 284.36 K, Liquid): 0.00211 ± 0.00013 kPa | vapor or sublimation pressure ([2]; 286.31 K, Liquid): 0.00252 ± 0.00014 kPa | vapor or sublimation pressure ([2]; 288.32 K, Liquid): 0.00302 ± 0.00015 kPa | vapor or sublimation pressure ([2]; 290.27 K, Liquid): 0.00358 ± 0.00017 kPa | vapor or sublimation pressure ([2]; 290.29 K, Liquid): 0.00359 ± 0.00017 kPa | vapor or sublimation pressure ([2]; 292.29 K, Liquid): 0.00431 ± 0.0002 kPa | vapor or sublimation pressure ([2]; 294.24 K, Liquid): 0.00507 ± 0.00022 kPa | vapor or sublimation pressure ([2]; 296.28 K, Liquid): 0.00607 ± 0.00026 kPa | vapor or sublimation pressure ([2]; 298.2 K, Liquid): 0.0071 ± 0.0003 kPa | vapor or sublimation pressure ([2]; 300.25 K, Liquid): 0.00844 ± 0.00035 kPa | vapor or sublimation pressure ([2]; 302.2 K, Liquid): 0.00987 ± 0.0004 kPa | vapor or sublimation pressure ([2]; 304.21 K, Liquid): 0.01167 ± 0.00047 kPa | vapor or sublimation pressure ([2]; 306.16 K, Liquid): 0.01359 ± 0.00052 kPa | vapor or sublimation pressure ([2]; 308.14 K, Liquid): 0.0158 ± 0.00056 kPa | vapor or sublimation pressure ([2]; 310.17 K, Liquid): 0.01854 ± 0.0006 kPa | vapor or sublimation pressure ([2]; 312.14 K, Liquid): 0.02149 ± 0.00064 kPa | vapor or sublimation pressure ([2]; 314.11 K, Liquid): 0.02521 ± 0.0007 kPa | vapor or sublimation pressure ([2]; 316.14 K, Liquid): 0.029 ± 0.00076 kPa | vapor or sublimation pressure ([2]; 318.06 K, Liquid): 0.03354 ± 0.00083 kPa | vapor or sublimation pressure ([2]; 320.05 K, Liquid): 0.03839 ± 0.00091 kPa | vapor or sublimation pressure ([2]; 322.02 K, Liquid): 0.0445 ± 0.001 kPa | vapor or sublimation pressure ([2]; 324.04 K, Liquid): 0.05044 ± 0.0011 kPa | vapor or sublimation pressure ([2]; 326.02 K, Liquid): 0.05848 ± 0.0012 kPa | vapor or sublimation pressure ([2]; 327.98 K, Liquid): 0.06647 ± 0.0013 kPa | vapor or sublimation pressure ([2]; 329.95 K, Liquid): 0.07637 ± 0.0015 kPa | vapor or sublimation pressure ([2]; 331.91 K, Liquid): 0.08658 ± 0.0016 kPa | vapor or sublimation pressure ([2]; 333.89 K, Liquid): 0.09881 ± 0.0018 kPa | vapor or sublimation pressure ([2]; 335.91 K, Liquid): 0.1114 ± 0.002 kPa | vapor or sublimation pressure ([2]; 337.89 K, Liquid): 0.1263 ± 0.0023 kPa | vapor or sublimation pressure ([2]; 339.81 K, Liquid): 0.1424 ± 0.0021 kPa | vapor or sublimation pressure ([2]; 341.9 K, Liquid): 0.1624 ± 0.0023 kPa | Normal melting temperature ([2]; Crystal): 3.4 ± 0.4 °C

Cn1cccn1 [1-methyl-1H-pyrazole]
Molar enthalpy of transition or fusion [1]: 2.72 ± 0.0956 kcal/mol | vapor or sublimation pressure ([2]; 253.9 K, Liquid): 0.0681 ± 0.0014 kPa | vapor or sublimation pressure ([2]; 255.85 K, Liquid): 0.08089 ± 0.0016 kPa | vapor or sublimation pressure ([2]; 257.81 K, Liquid): 0.0948 ± 0.0018 kPa | vapor or sublimation pressure ([2]; 260.03 K, Liquid): 0.1138 ± 0.0021 kPa | vapor or sublimation pressure ([2]; 261.7 K, Liquid): 0.1308 ± 0.002 kPa | vapor or sublimation pressure ([2]; 263.65 K, Liquid): 0.1508 ± 0.0022 kPa | vapor or sublimation pressure ([2]; 265.63 K, Liquid): 0.1755 ± 0.0024 kPa | vapor or sublimation pressure ([2]; 267.62 K, Liquid): 0.2033 ± 0.0026 kPa | vapor or sublimation pressure ([2]; 269.55 K, Liquid): 0.2358 ± 0.0029 kPa | vapor or sublimation pressure ([2]; 271.5 K, Liquid): 0.2714 ± 0.0032 kPa | vapor or sublimation pressure ([2]; 273.47 K, Liquid): 0.3111 ± 0.0035 kPa | vapor or sublimation pressure ([2]; 275.47 K, Liquid): 0.3597 ± 0.0039 kPa | vapor or sublimation pressure ([2]; 277.42 K, Liquid): 0.4115 ± 0.0044 kPa | vapor or sublimation pressure ([2]; 279.4 K, Liquid): 0.4704 ± 0.0049 kPa | vapor or sublimation pressure ([2]; 281.39 K, Liquid): 0.539 ± 0.0055 kPa | vapor or sublimation pressure ([2]; 283.35 K, Liquid): 0.6108 ± 0.0061 kPa | vapor or sublimation pressure ([2]; 285.3 K, Liquid): 0.6958 ± 0.0069 kPa | vapor or sublimation pressure ([2]; 287.32 K, Liquid): 0.7878 ± 0.0077 kPa | vapor or sublimation pressure ([2]; 289.32 K, Liquid): 0.893 ± 0.0086 kPa | vapor or sublimation pressure ([2]; 291.27 K, Liquid): 1.01 ± 0.01 kPa | vapor or sublimation pressure ([2]; 293.27 K, Liquid): 1.147 ± 0.011 kPa | Normal melting temperature ([2]; Crystal): -43.9 ± 0.4 °C
